From patent publication US11938218B2, “High density peptide polymers” (The Regents of the University of California, priority 2014, dated 2024)
Ends that are not written are not given here. * marks the point of attachment. NorAha = N-(hexanoic acid)-cis-5-norbornene-exo-dicarboximide, O=C1[C@@H]2[C@H](C(=O)N1CCCCCC(=O)*)[C@H]1C=C[C@@H]2C1; fluorescein = 5(6)-carboxyfluorescein

Legend:
[1] = system: trypsin, chymotrypsin and Pronase; assay: RP-HPLC analysis of CPP proteolysis (intact material after protease treatment); assay type: in vitro ADME; details: 1 μM protease, 20 min
Experimental: The extent of proteolytic degradation of the Tat peptide, polymer and particle by trypsin (Gibco Life Tech., cat. #15090-046), a-chymotrypsin (Fisher Scientific, cat. #ICN1522722) and Pronase (Roche, cat. #10165921001) was assessed by comparison of chromatograms in RP-HPLC. I n these experiments, the material at the indicated concentration was incubated with each protease (at 1 μM) for 20 min, and then the enzymes were heat denatured at 65° C. for 15 min, and the solution was immediately injected onto an analytical RP-HPLC. […] Note that the standard curves for the polymer and particle will be biased due to the fact that after cleavage, the polymer backbone and fluorophore should remain intact, and will comprise part of the measured peak area.
Tat-containing materials, at the same concentration used in flow cytometery and confocal microscopy studies described above (2.5 M), were challenged for 20 min with various proteases at high enzyme concentration (˜1 M) prior to determining the extent of proteolytic cleavage and residual bioactivity. Such activity was assayed by three separate methods: reverse-phase high-performance liquid chromatography (RP-HPLC), flow cytometry, and confocal microscopy. […] The bioactivity of enzymatically digested materials was then assessed in cellular assays by both flow cytometry and confocal microscopy.

chymotrypsin = chymotrypsin (Bos taurus, UniProt P00766); assay: Time course of chymotrypsin treatment assayed by RP-HPLC; details: after 20 minutes of incubation with chymotrypsin (1 μM)
HeLa cells [2] = assay: Cellular uptake in HeLa cells by flow cytometry (Tat, Arg8, guanidinium materials and controls); assay type: cell-based; details: 30 min incubation, DMEM with 10% FBS
HeLa cells [3] = assay: CellTiter-Blue cell viability assay, 72 hrs; details: for LD50: data fit to the Hill equation
Experimental: The cytotoxicity of materials was assessed using the CellTiter-Blue® assay (Promega, cat #G8081), which measures the metabolic reduction of resazurin to resorufin via fluorescence. For these studies, HeLa cells were plated at a density of 3,500 cells per well of a 96-well plate 18 hrs prior to treatment. Materials dissolved in DPBS at 10× the desired concentrations were added to the wells along with a 10% DMSO positive control. Cells were incubated for 72 hrs at 37° C. Note that concentration for all toxicity measurements is with respect to peptide concentration to ensure that all peptides and polymers are fairly compared with respect to their therapeutic components. […] The medium was removed and 80 μL of fresh medium lacking phenol red was added. To this was added 20 μL of the CellTiter-Blue® reagent and the cells were then incubated for 2 hrs prior to measuring fluorescence using 560 nm excitation and 590 nm emission. The fluorescence measurements were corrected for background fluorescence from the CellTiter-Blue® reagent by subtracting the fluorescence reading of wells treated with the reagent in the absence of cells. Fluorescence values were then referenced as a percentage of the value obtained for the DPBS vehicle control.

HeLa cells [4] = assay: Cellular uptake in HeLa cells by flow cytometry (GSGSG-derived and KLA polymers); assay type: cell-based; details: 2.5 μM with respect to fluorophore, 30 min
Experimental: HeLa cells were plated at a density of 90,000 cells per well of a 24-well plate 18 hrs prior to treatment with the material of interest. Materials dissolved in Dulbecco's Phosphate Buffered Saline (DPBS without Ca2+ or Mg2+; Corning Cellgro, cat. #21-031-CM) at 10× the desired concentration (where concentration is with respect to fluorophore concentration to ensure propare comparison of each molecular transporter) were added to the wells and the plates were incubated for 30 min at 37° C. The medium was then removed and the cells were washed 2× with DPBS and then incubated 3× for five minutes each with heparin (0.5 mg/mL in DPBS; Affymetrix, cat. #16920) to remove any membrane-bound, non-internalized material, and finally rinsed again with DPBS. The cells were then trypsinized (0.25% trypsin in DPBS; Gibco Life Tech., cat. #15090-046) for 10 min, cold medium was added, and the cells were transferred to Eppendorfs. The suspended cells were centrifuged to pellets and then resuspended in a minimal amount of cold DPBS. Flow cytometry data (10,000 events on three separate cultures) was then acquired.

HeLa cells [5] = assay: Pharmacological and thermal probes of cellular uptake mechanisms by flow cytometry; assay type: cell-based; details: dynasore 80 μM, MβCD 9.5 mM, 4° C.
Experimental: HeLa cells were plated at a density of 90,000 cells per well of a 24-well plate 18 h prior to treatment. Materials dissolved in Dulbecco's Phosphate Buffered Saline (DPBS without Ca^2+ or Mg^2+; Corning Cellgro, cat. #21-031-CM) at 10× the desired concentration were added to the wells, and the plates were incubated for 30 min at 37° C. The medium was then removed, and the cells were washed twice with DPBS and then incubated three times for 5 min with heparin (0.5 mg/mL in DPBS; Affymetrix, cat. #16920), and finally rinsed again with DPBS. The cells were then trypsinized (0.25% trypsin; Gibco Life Tech., cat. #15090-046) for 10 min, cold medium was added, and the cells were transferred to Eppendorfs, centrifuged to pellets and then resuspended in a minimal amount of cold DPBS. Fluorescence activated cell sorting data (10000 events on three separate cultures) was acquired on an Accuri C6 flow cytometer set to default “3 blue 1 red” configuration with standard optics and slow fluidics (14 μL/min). […] The cells were then incubated, prepared and analyzed by flow cytometry as described above. […] Data is reported as the normalized mean fluorescence, which are the mean fluorescence yielded by the material/the mean fluorescence from the vehicle control. […]

HeLa cells [6] = assay: Live-cell confocal microscopy (GSGSG-derived and KLA polymers); assay type: cell-based; details: 2.5 μM with respect to fluorophore
[7] = system: CC(C)C[C@H](NC(=O)[C@H](Cc1c[nH]cn1)NC(=O)[C@H](C)NC(=O)[C@@H]1CCCN1C(=O)[C@H](CCCNC(=N)N)NC(=O)[C@H](CCC(=O)NCCNc1cccc2c(S(=O)(=O)O)cccc12)NC(=O)CN1C(=O)[C@@H]2[C@H](C1=O)[C@H]1C=C[C@@H]2C1)C(=O)N[C@@H](CCCNC(=N)N)C(=O)N[C@@H](CC(=O)O)C(=O)N[C@@H](CO)C(=O)NCC(=O)N[C@@H](CCCCNC(=O)c1ccc(N=Nc2ccc(N(C)C)cc2)cc1)C(=O)NCC(=O)N[C@@H](CO)C(=O)NCC(=O)N[C@@H](CO)C(=O)NCC(N)=O; assay: purified protein, by the assay type; details: other: Michaelis-Menten plot, cleavage by MT1-MMP; pH 7.4
[8] = 72 hrs, concentration with respect to peptide

N=C(N)NCCC[C@H](NC(=O)[C@H](CCCNC(=N)N)NC(=O)[C@H](CCCNC(=N)N)NC(=O)[C@H](CCC(N)=O)NC(=O)[C@H](CCCNC(=N)N)NC(=O)[C@H](CCCNC(=N)N)NC(=O)[C@H](CCCCN)NC(=O)[C@H](CCCCN)NC(=O)[C@H](CCCNC(=N)N)NC(=O)CNC(=O)[C@H](Cc1ccc(O)cc1)NC(=O)[C@@H](N)CCCCNC(=O)c1ccc2c(c1)C(=O)OC21c2ccc(O)cc2Oc2cc(O)ccc21)C(N)=O [Tat peptide]
proteolysis by RP-HPLC after protease treatment (in words) [1]: complete consumption
material remaining, of the starting concentration (chymotrypsin): less than 10%

Arg8 polymer: fluorescein end-labeled ROMP homopolymer of NorAha-Arg8 monomer, DP 8, deprotected (NorAha-RRRRRRRR-NH2; also: ROMP homopolymer, DP 8, fluorescein end label on polymer)
cellular uptake by flow cytometry (in words) (HeLa cells [2]): responses similar to those of the guanidinium polymer

GSGSG56-b-OEG28 [GSGSG, m ~60]
cytotoxicity (in words) (HeLa cells [3]; at concentrations up to 1 mM): No cytotoxicity

GSGSGKK61-b-OEG30 [GSGSGKK, m ~60]
cytotoxicity (in words) (HeLa cells [3]; at concentrations up to 1 mM): No cytotoxicity

GSGSGR71-b-OEG26 (also: ROMP block copolymer, Arg block DP 71, OEG block DP 26) [GSGSGR, m ~60]
cellular uptake by flow cytometry (in words) (HeLa cells [4]): better intracellular penetration

GSGSGRR57-b-OEG13 (not fully specified; also: ROMP polymer backbone, 57 repeats of peptide, OEG block, 13 units) [GSGSGRR, m ~60]
cytotoxicity (in words) (HeLa cells [3]; at concentrations up to 1 mM): No cytotoxicity
cellular uptake by flow cytometry (in words) (HeLa cells [4]): better intracellular penetration

K(5/6-Flu)RRRRRRRR-NH2 (K(fluorescein)RRRRRRRR-NH2) [Arg8 peptide, fluorescein-labeled canonical cell penetrating peptide Arg8]
effect of pharmacological and thermal inhibition on flow cytometry readings (HeLa cells [5]): only a small effect

KLA6 [KLA full length, m ~5]
LD50 (HeLa cells [3]; [8]): 12.5 µM

KLA11 [KLA full length, m ~10]
LD50 (HeLa cells [3]; [8]): 25 µM

KLA14 [KLA full length, m ~15]
LD50 (HeLa cells [3]; [8]): 30 µM

KLA(fragment)11 (KLAKLAK; also: ROMP polymer, 11 repeats) [KLA fragment, m ~10]
cytotoxicity (in words) (HeLa cells [3]; [8]): negligible toxicity
internalization and localization by live-cell confocal microscopy (in words) (HeLa cells [6]): a mixture of diffuse and punctate fluorescence
cellular uptake by flow cytometry (in words) (HeLa cells [4]): ability to enter cells

KLAKLAKKLAKLAK (KLAKLAKKLAKLAK-NH2; also: fluorescein-lysine, position not given here) [KLA peptide, reference compound]
cytotoxicity (in words) (HeLa cells [3]; [8]): no cytotoxicity was detected
cellular uptake by flow cytometry (in words) (HeLa cells [4]): indistinguishable from that of the vehicle control

MT1-MMP (Homo sapiens)
Km [7]: 11 µM
kcat/Km [7]: 0.52 µM⁻¹ min⁻¹

R52-b-OEG20 [R control, m ~60]
internalization and localization by live-cell confocal microscopy (in words) (HeLa cells [6]): a mixture of diffuse and punctate fluorescence
